This is an account of results in ChEMBL document CHEMBL3875217, “Identification of a melampomagnolide B analog as a potential lead molecule for treatment of acute myelogenous leukemia” (Bioorg Med Chem, 2017).

What is called EC50 is the concentration giving half of the maximal effect. As a reminder, the Cmax is the peak of the concentration-time curve. A word on the Tmax: it is the time from dosing to the highest level. One may read the AUC as the area under the concentration-time curve, a measure of exposure. A higher AUC goes with more exposure.

Series [1] is described as follows: Antileukemic activity against human M9-ENL1 cells assessed as increase in apoptotic cell level after 24 hrs by Annexin V/propidium iodide/7-AAD based FACS analysis. Format: functional. The following applies: M9-ENL1, 24 h. Background: Flow cytometry measures light scatter and fluorescence of single cells or particles in a stream.
Series [2] can be described thus: Cmax in BALB/c mouse at 200 mg/kg, po by LC/MS/MS analysis. It counts as ADME, organism-based. Also noted: dose 200 mg/kg, route oral. The following applies: in vivo.
Series [3] can be described thus: Tmax in BALB/c mouse at 200 mg/kg, po by LC/MS/MS analysis. It counts as ADME, organism-based. The following applies: in vivo.
Series [4] in a line: Apparent elimination half life in BALB/c mouse at 200 mg/kg, po by LC/MS/MS analysis. Format: ADME, organism-based. The following applies: in vivo.
A short description of series [5]: AUC in BALB/c mouse at 200 mg/kg, po by LC/MS/MS analysis. Format: ADME, organism-based. As to conditions: in vivo; call rule not given here.
The nature of series [6]: Total clearance in BALB/c mouse at 20 mg/kg, iv or 200 mg/kg, po by LC/MS/MS analysis. It counts as ADME, organism-based. The following applies: in vivo.
A short description of series [7]: Oral bioavailability in BALB/c mouse at 200 mg/kg by LC/MS/MS analysis. Format: ADME, organism-based. As to conditions: in vivo.
The nature of series [8]: Drug uptake in BALB/c mouse blood at 200 mg/kg, po after 15 mins by LC/MS/MS analysis. Format: ADME, organism-based. The following applies: in vivo, 0.25 h.
The nature of series [9]: Potency index, ration of parthenolide EC50 to compound EC50 for human M9-ENL1 cells. It counts as functional.
Series [10] can be described thus: Cmax in BALB/c mouse at 271.2 mg/kg, po by LC/MS/MS analysis. As to conditions: in vivo. It counts as ADME, organism-based. Also noted: dose 271.2 mg/kg, route oral.
Series [11] in a line: Tmax in BALB/c mouse at 271.2 mg/kg, po by LC/MS/MS analysis. Format: ADME, organism-based. The following applies: in vivo.
Series [12] can be described thus: Apparent elimination half life in BALB/c mouse at 271.2 mg/kg, po by LC/MS/MS analysis. It counts as ADME, organism-based. As to conditions: in vivo.
A short description of series [13]: Total clearance in BALB/c mouse at 27.1 mg/kg, iv or 271.2 mg/kg, po by LC/MS/MS analysis. The following applies: in vivo. It counts as ADME, organism-based.
Series [14] is described as follows: Oral bioavailability in BALB/c mouse at 271.2 mg/kg by LC/MS/MS analysis. Format: ADME, organism-based. The following applies: in vivo.
The nature of series [15]: Drug uptake in BALB/c mouse blood at 271.2 mg/kg, po after 15 mins by LC/MS/MS analysis. The following applies: in vivo, 0.25 h. It counts as ADME, organism-based.
Series [16] is described as follows: Drug uptake in BALB/c mouse Plasma at 271.2 mg/kg, po after 15 mins by LC/MS/MS analysis. Format: ADME, organism-based. As to conditions: in vivo, 0.25 h.

In the case of `C=C1C(=O)O[C@H]2[C@H]1CC/C(CO)=C\CC[C@@]1(C)O[C@@H]21`, in series [1], the EC50 is 15500 nM. For the same molecule, in [2], the Cmax was determined as 4.5 µM. In addition, in [3], the time of peak concentration (Tmax) is 2 h. Besides, the “betat1/2(app)” value in [4] is recorded as 61.8 min. This molecule showed an exposure (AUC) in [5] of 868.3 µmol·min/L. In series [6], this molecule showed a clearance of 70 mL/min/kg. Also, the F in [7] amounted to 6.7%. For the same molecule, the Drug uptake entry in series [8] is recorded as “Active”.

Take `C=C1C(=O)O[C@H]2[C@H]1CC/C(COC(=O)Nc1nc3ccccc3[nH]1)=C\CC[C@@]1(C)O[C@@H]21`: the EC50 in series [1] came out at 1600 nM.

`C=C1C(=O)O[C@H]2[C@H]1CC/C(COC(=O)NCc1nc3ccccc3[nH]1)=C\CC[C@@]1(C)O[C@@H]21`: the EC50 in series [1] was determined as 3900 nM.

With `C=C1C(=O)O[C@H]2[C@H]1CC/C(COC(=O)n1cc(C)nc1CC)=C\CC[C@@]1(C)O[C@@H]21`, the EC50 in series [1] was determined as 1400 nM.

In the case of `C=C1C(=O)O[C@H]2[C@H]1CC/C(COC(=O)n1ccnc1C)=C\CC[C@@]1(C)O[C@@H]21`, the EC50 in series [1] is 2100 nM.

As to `C=C1C(=O)O[C@H]2[C@H]1CC/C(COC(=O)n1ccnc1)=C\CC[C@@]1(C)O[C@@H]21`, the EC50 in series [1] came to 900 nM. Moreover, in [9], the “Ratio EC50” value is recorded as 8. Moreover, the Cmax in [10] stood at 10.6 µM. The Tmax in series [11] is 0.502 h. The “betat1/2(app)” value in [12] was found to be 92.3 min. In [5], this molecule gave an AUC of 2137.5 µmol·min/L. The same molecule registered a clearance in series [13] of 200 mL/min/kg. This molecule also returned a F in series [14] of 45.5%. Further, the Drug uptake entry in series [15] and in series [16] was “Active” each time.

On to `C=C1C(=O)O[C@@H]2[C@H]3O[C@]3(C)CC/C=C(\C)CC[C@@H]12`, for which the EC50 in [1] stood at 7000 nM.
